Test results published in the NIST ThermoML archive (doi:10.1021/je030226s).

Experiments:
[1] = 101.32 kPa, Liquid
[2] = refractive index (Na D-line) (dimensionless); conditions: 101.33 kPa, Liquid
[3] = refractive index (Na D-line) (dimensionless); xn = mol fraction of the nth substance listed; conditions: 101.32 kPa, Liquid
[4] = xn = mol fraction of the nth substance listed; conditions: 101.32 kPa, Liquid

CCCCCl [1-chlorobutane]
Conditions	mass density, 288.15 K [kg/m3]	mass density, 298.15 K [kg/m3]	mass density, 308.15 K [kg/m3]	refractive index, 288.15 K	refractive index, 298.15 K	refractive index, 308.15 K	viscosity, 288.15 K [mPa·s]	viscosity, 298.15 K [mPa·s]	viscosity, 308.15 K [mPa·s]
[1]	892.2	881	869.7	–	–	–	0.472	0.423	0.382
[2]	–	–	–	1.4045	1.3993	1.3941	–	–	–

CCCCCl [1-chlorobutane] + CO
Conditions	mass density, 288.15 K [kg/m3]	mass density, 298.15 K [kg/m3]	mass density, 308.15 K [kg/m3]	refractive index, 288.15 K	refractive index, 298.15 K	refractive index, 308.15 K	viscosity, 288.15 K [mPa·s]	viscosity, 298.15 K [mPa·s]	viscosity, 308.15 K [mPa·s]
[3], x2 = 0	–	–	–	1.4045	1.3993	1.3941	–	–	–
[3], x2 = 0.05	–	–	–	1.4032	1.398	1.3928	–	–	–
[3], x2 = 0.1	–	–	–	1.4015	1.3964	1.3912	–	–	–
[3], x2 = 0.2	–	–	–	1.3978	1.3927	1.3877	–	–	–
[3], x2 = 0.3	–	–	–	1.3936	1.3885	1.3834	–	–	–
[3], x2 = 0.4	–	–	–	1.3885	1.3835	1.3785	–	–	–
[3], x2 = 0.5	–	–	–	1.3827	1.3778	1.3728	–	–	–
[3], x2 = 0.6	–	–	–	1.3759	1.371	1.366	–	–	–
[3], x2 = 0.7	–	–	–	1.3679	1.3628	1.3579	–	–	–
[3], x2 = 0.8	–	–	–	1.3579	1.3529	1.3478	–	–	–
[3], x2 = 0.9	–	–	–	1.3457	1.3413	1.3365	–	–	–
[3], x2 = 0.95	–	–	–	1.3384	1.3342	1.3298	–	–	–
[4], x2 = 0	892.2	881	869.7	–	–	–	0.472	0.423	0.382
[4], x2 = 0.05	889.6	878.4	867.1	–	–	–	0.463	0.416	0.375
[4], x2 = 0.1	887.2	876.1	864.7	–	–	–	0.462	0.413	0.374
[4], x2 = 0.2	882.4	871.2	859.9	–	–	–	0.465	0.412	0.376
[4], x2 = 0.3	876.9	865.6	854.5	–	–	–	0.478	0.421	0.382
[4], x2 = 0.4	870.6	859.6	848.4	–	–	–	0.496	0.435	0.393
[4], x2 = 0.5	863.3	852.4	841.3	–	–	–	0.516	0.45	0.407
[4], x2 = 0.6	854.6	843.9	833	–	–	–	0.536	0.469	0.416
[4], x2 = 0.7	844.2	833.7	823.1	–	–	–	0.559	0.489	0.431
[4], x2 = 0.8	831.7	821.4	811	–	–	–	0.581	0.506	0.445
[4], x2 = 0.9	815.9	806	796	–	–	–	0.601	0.521	0.457
[4], x2 = 0.95	806.6	796.9	787.2	–	–	–	0.613	0.532	0.467

CCCCO [butan-1-ol]
Conditions	mass density, 288.15 K [kg/m3]	mass density, 298.15 K [kg/m3]	mass density, 308.15 K [kg/m3]	refractive index, 288.15 K	refractive index, 298.15 K	refractive index, 308.15 K	viscosity, 288.15 K [mPa·s]	viscosity, 298.15 K [mPa·s]	viscosity, 308.15 K [mPa·s]
[1]	813.5	805.9	798.2	–	–	–	3.394	2.598	2.019
[2]	–	–	–	1.401	1.3972	1.3932	–	–	–

CCCCO [butan-1-ol] + CCCCCl
x1 = 1
Conditions	mass density, 288.15 K [kg/m3]	mass density, 298.15 K [kg/m3]	mass density, 308.15 K [kg/m3]	refractive index, 288.15 K	refractive index, 298.15 K	refractive index, 308.15 K	viscosity, 288.15 K [mPa·s]	viscosity, 298.15 K [mPa·s]	viscosity, 308.15 K [mPa·s]
[3]	–	–	–	1.401	1.3972	1.3932	–	–	–
[4]	813.5	805.9	798.2	–	–	–	3.394	2.598	2.019

CCO [ethanol]
Conditions	mass density, 288.15 K [kg/m3]	mass density, 298.15 K [kg/m3]	mass density, 308.15 K [kg/m3]	refractive index, 288.15 K	refractive index, 298.15 K	refractive index, 308.15 K	viscosity, 288.15 K [mPa·s]	viscosity, 298.15 K [mPa·s]	viscosity, 308.15 K [mPa·s]
[1]	793.8	785.2	776.6	–	–	–	1.317	1.085	0.902
[2]	–	–	–	1.363	1.3591	1.355	–	–	–

CCO [ethanol] + CCCCCl
x1 = 1
Conditions	mass density, 288.15 K [kg/m3]	mass density, 298.15 K [kg/m3]	mass density, 308.15 K [kg/m3]	refractive index, 288.15 K	refractive index, 298.15 K	refractive index, 308.15 K	viscosity, 288.15 K [mPa·s]	viscosity, 298.15 K [mPa·s]	viscosity, 308.15 K [mPa·s]
[3]	–	–	–	1.363	1.3591	1.355	–	–	–
[4]	793.8	785.2	776.6	–	–	–	1.317	1.085	0.902

CO [methanol]
Conditions	mass density, 288.15 K [kg/m3]	mass density, 298.15 K [kg/m3]	mass density, 308.15 K [kg/m3]	refractive index, 288.15 K	refractive index, 298.15 K	refractive index, 308.15 K	viscosity, 288.15 K [mPa·s]	viscosity, 298.15 K [mPa·s]	viscosity, 308.15 K [mPa·s]
[1]	796.1	786.6	777.2	–	–	–	0.627	0.543	0.473
[2]	–	–	–	1.3303	1.3275	1.3254	–	–	–

CO [methanol] + CCCCCl
x1 = 1
Conditions	mass density, 288.15 K [kg/m3]	mass density, 298.15 K [kg/m3]	mass density, 308.15 K [kg/m3]	refractive index, 288.15 K	refractive index, 298.15 K	refractive index, 308.15 K	viscosity, 288.15 K [mPa·s]	viscosity, 298.15 K [mPa·s]	viscosity, 308.15 K [mPa·s]
[3]	–	–	–	1.3303	1.3275	1.3254	–	–	–
[4]	796.1	786.6	777.2	–	–	–	0.627	0.543	0.473

CCCO [propan-1-ol]
Conditions	mass density, 288.15 K [kg/m3]	mass density, 298.15 K [kg/m3]	mass density, 308.15 K [kg/m3]	refractive index, 288.15 K	refractive index, 298.15 K	refractive index, 308.15 K	viscosity, 288.15 K [mPa·s]	viscosity, 298.15 K [mPa·s]	viscosity, 308.15 K [mPa·s]
[1]	807.6	799.6	791.5	–	–	–	2.504	1.958	1.548
[2]	–	–	–	1.3869	1.3829	1.3789	–	–	–

CCCO [propan-1-ol] + CCCCCl
x1 = 1
Conditions	mass density, 288.15 K [kg/m3]	mass density, 298.15 K [kg/m3]	mass density, 308.15 K [kg/m3]	refractive index, 288.15 K	refractive index, 298.15 K	refractive index, 308.15 K	viscosity, 288.15 K [mPa·s]	viscosity, 298.15 K [mPa·s]	viscosity, 308.15 K [mPa·s]
[3]	–	–	–	1.3869	1.3829	1.3789	–	–	–
[4]	807.6	799.6	791.5	–	–	–	2.504	1.958	1.548
